In patent US20080312255A1 (ASTRAZENECA AB, priority 2007, published 2008):

Target: S. aureus GyrB ATPase (Staphylococcus aureus, UniProt P0A0K8)
Test: S. aureus GyrB ATPase inhibition (ammonium molybdate/malachite green phosphate detection)
Format: biochemical
Conditions: for inhibition at 1 µM: compound concentration of 1 μM
Description: S. aureus GyrB ATPase Inhibition Activity: Compounds may be tested for inhibition of S. aureus GyrB ATPase activity using an ammonium molybdate/malachite green-based phosphate detection assay (Lanzetta, P. A., L. J. Alvarez, P. S. Reinach, and O. A. Candia, 1979, 100: 95-97). Assays can be performed in multiwell plates in 30 μl reactions containing: 50 mM Hepes buffer pH 7.5, 75 mM ammonium acetate, 8.0 mM magnesium chloride, 0.5 mM ethylenediaminetetraacetic acid, 5% glycerol, 1.0 mM 1,4-Dithio-DL-threitol, 200 nM bovine serum albumin, 1.0 μg/ml sheared salmon sperm DNA, 250 pM E. coli GyrA, 250 pM S. aureus GyrB, 250 μM ATP, and compound in dimethylsulfoxide. Reactions can be quenched with […] of ammonium molybdate/malachite green detection reagent containing 1.2 mM malachite green hydrochloride, 8.5 mM ammonium molybdate tetrahydrate, and 1 M hydrochloric acid. Plates can be read in an absorbance plate reader at 650 nm and percent inhibition values can be calculated using dimethylsulfoxide (2%)-containing reactions as 0% inhibition and EDTA-containing ([…]) reactions as 100% inhibition controls. An IC50 measurement of compound potency for each compound can be determined from reactions performed in the presence of 10 different compound concentrations.
Compounds of the invention were tested in an assay substantially similar to the assay described above for measuring the inhibition of S. aureus GyrB ATPase. Percent inhibition of S. aureus GyrB ATPase at a compound concentration of 1 μM (unless otherwise noted) is disclosed in the following table: […]

S. aureus GyrB ATPase, sequence (P0AES4 whole entry): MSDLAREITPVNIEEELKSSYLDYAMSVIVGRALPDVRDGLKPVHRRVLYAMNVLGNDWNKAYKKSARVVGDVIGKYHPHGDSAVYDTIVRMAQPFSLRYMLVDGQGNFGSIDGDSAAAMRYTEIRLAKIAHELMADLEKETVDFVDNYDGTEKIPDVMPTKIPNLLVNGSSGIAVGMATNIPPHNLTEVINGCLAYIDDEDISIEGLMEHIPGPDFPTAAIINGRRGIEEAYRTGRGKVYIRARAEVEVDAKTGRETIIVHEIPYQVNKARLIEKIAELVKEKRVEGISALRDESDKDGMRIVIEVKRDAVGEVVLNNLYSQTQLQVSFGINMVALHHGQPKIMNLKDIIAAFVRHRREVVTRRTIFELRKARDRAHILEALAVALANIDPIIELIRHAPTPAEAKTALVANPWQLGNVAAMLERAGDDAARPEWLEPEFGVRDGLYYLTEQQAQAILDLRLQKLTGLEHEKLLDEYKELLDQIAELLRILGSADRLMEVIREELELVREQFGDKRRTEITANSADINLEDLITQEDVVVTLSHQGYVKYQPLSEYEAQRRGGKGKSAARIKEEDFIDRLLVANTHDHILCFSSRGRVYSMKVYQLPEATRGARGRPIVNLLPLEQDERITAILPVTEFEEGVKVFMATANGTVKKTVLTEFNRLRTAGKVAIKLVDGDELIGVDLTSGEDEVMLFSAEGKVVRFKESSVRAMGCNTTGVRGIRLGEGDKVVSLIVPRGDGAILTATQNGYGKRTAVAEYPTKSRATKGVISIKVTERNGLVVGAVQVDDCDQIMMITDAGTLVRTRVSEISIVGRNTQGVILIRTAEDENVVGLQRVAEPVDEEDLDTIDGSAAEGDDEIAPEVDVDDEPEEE
S. aureus GyrB ATPase, sequence (P0A0K8 whole entry): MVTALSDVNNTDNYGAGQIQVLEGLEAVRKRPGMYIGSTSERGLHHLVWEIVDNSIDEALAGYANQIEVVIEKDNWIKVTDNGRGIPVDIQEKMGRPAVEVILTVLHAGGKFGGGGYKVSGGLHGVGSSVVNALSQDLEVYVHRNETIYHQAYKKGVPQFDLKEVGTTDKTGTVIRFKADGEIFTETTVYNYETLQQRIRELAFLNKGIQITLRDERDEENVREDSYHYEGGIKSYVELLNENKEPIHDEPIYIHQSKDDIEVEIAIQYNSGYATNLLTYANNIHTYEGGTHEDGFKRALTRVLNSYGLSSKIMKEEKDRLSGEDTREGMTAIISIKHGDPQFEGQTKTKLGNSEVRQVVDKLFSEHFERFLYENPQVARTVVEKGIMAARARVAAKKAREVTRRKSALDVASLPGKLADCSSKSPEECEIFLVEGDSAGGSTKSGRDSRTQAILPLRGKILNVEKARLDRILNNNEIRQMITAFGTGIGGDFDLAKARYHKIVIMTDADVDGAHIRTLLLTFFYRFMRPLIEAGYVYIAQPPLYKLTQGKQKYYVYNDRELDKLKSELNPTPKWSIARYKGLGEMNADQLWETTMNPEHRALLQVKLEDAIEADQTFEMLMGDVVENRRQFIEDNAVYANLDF

Row | SMILES | inhibition at 1 µM [%] | inhibition at 5 µM (compound tested at a concentration of 5 μM) [%]
1 | COCn1ccnc1-c1nc(N2CC[C@@H](NC(=O)c3[nH]c(C)c(Cl)c3Cl)[C@@H](F)C2)sc1C(=O)O [Example 19, 2-((3S,4R)-4-{[(3,4-Dichloro-5-methyl-1H-pyrrol-2-yl)carbonyl]amino}-3-fluoropiperidin-1-yl)-4-[1-(methoxymethyl)-1H-imidazol-2-yl]-1,3-thiazole-5-carboxylic acid] | 102 | –
2 | CO[C@H]1CN(c2nc(-c3cn(C)nn3)c(C(=O)O)s2)CC[C@H]1NC(=O)c1[nH]c(C)c(Cl)c1C#N [Example 120, 2-((3S,4R)-4-(4-chloro-3-cyano-5-methyl-1H-pyrrole-2-carboxamido)-3-methoxypiperidin-1-yl)-4-(1-methyl-1H-1,2,3-triazol-4-yl)thiazole-5-carboxylic acid] | 104 | –
3 | Cc1[nH]c(C(=O)N[C@@H]2CCN(c3nc(-c4cnccn4)c(C(=O)O)s3)C[C@@H]2F)c(Cl)c1Cl [Example 14] | 98.3 | –
4 | CCCO[C@H]1CN(c2nc(-c3ncnn3C)c(C(=O)O)s2)CC[C@H]1NC(=O)c1[nH]c(C)c(Cl)c1Cl [Example 159, 2-[(3S,4R)-4-{[(3,4-dichloro-5-methyl-1H-pyrrol-2-yl)carbonyl]amino}-3-propoxypiperidin-1-yl]-4-(1-methyl-1H-1,2,4-triazol-5-yl)-1,3-thiazole-5-carboxylic acid] | 31 | –
5 | Cc1[nH]c(C(=O)N[C@@H]2CCN(c3nc(-c4ccccn4)c(C(=O)O)s3)C[C@@H]2F)c(Cl)c1Cl [Example 8, 2-((3S,4R)-4-{[(3,4-Dichloro-5-methyl-1H-pyrrol-2-yl)carbonyl]amino}-3-fluoropiperidin-1-yl)-4-pyridin-2-yl-1,3-thiazole-5-carboxylic acid] | 106 | –
6 | CO[C@H]1CN(c2nc(-c3ncnn3C)c(C(=O)O)s2)CC[C@H]1NC(=O)c1[nH]c(C)c(C#N)c1Cl [Example 29, 2-((3S,4R)-4-{[(3-Chloro-4-cyano-5-methyl-1H-pyrrol-2-yl)carbonyl]amino}-3-methoxypiperidin-1-yl)-4-(1-methyl-1H-1,2,4-triazol-5-yl)-1,3-thiazole-5-carboxylic acid] | 101 | –
7 | Cc1[nH]c(C(=O)N[C@@H]2CCN(c3nc(-c4cnccn4)c(C(=O)O)s3)C[C@@H]2OCc2ccccc2)c(C#N)c1Cl [Example 155, 2-[(3S,4R)-3-(benzyloxy)-4-{[(4-chloro-3-cyano-5-methyl-1H-pyrrol-2-yl)carbonyl]amino}piperidin-1-yl]-4-(pyrazin-2-yl)-1,3-thiazole-5-carboxylic acid] | 110 | –
8 | CCOC(=O)c1sc(N2CC[C@@H](NC(=O)c3[nH]c(C)c(Cl)c3C#N)[C@@H](OC)C2)nc1-c1cn(C)cn1 [Example 108, ethyl 2-((3S,4R)-4-(4-chloro-3-cyano-5-methyl-1H-pyrrole-2-carboxamido)-3-methoxypiperidin-1-yl)-4-(1-methyl-1H-imidazol-4-yl)thiazole-5-carboxylate] | 86.6 | –
9 | COC(=O)c1sc(N2CC[C@@H](NC(=O)c3[nH]c(C)c(Cl)c3Cl)[C@@H](OC)C2)nc1-c1nccs1 [Example 44] | 99.6 | –
10 | CO[C@H]1CN(c2nc(-c3csc(N)n3)c(C(=O)O)s2)CC[C@H]1NC(=O)c1[nH]c(C)c(Cl)c1Cl [Example 33, 2′-Amino-2-((3S,4R)-4-{[(3,4-dichloro-5-methyl-1H-pyrrol-2-yl)carbonyl]amino}-3-methoxypiperidin-1-yl)-4,4′-bi-1,3-thiazole-5-carboxylic acid] | 101 | –
11 | CO[C@H]1CN(c2nc(-c3csc(N(C)C)n3)c(C(=O)O)s2)CC[C@H]1NC(=O)c1[nH]c(C)c(Cl)c1Cl [Example 35, 2-((3S,4R)-4-{[(3,4-Dichloro-5-methyl-1H-pyrrol-2-yl)carbonyl]amino}-3-methoxypiperidin-1-yl)-2′-(dimethylamino)-4,4′-bi-1,3-thiazole-5-carboxylic acid] | 96.6 | –
12 | CCOC(=O)c1sc(N2CC[C@@H](NC(=O)c3[nH]c(C)c(Cl)c3Cl)[C@@H](F)C2)nc1-c1ccccn1 [Example 49] | 112 | –
13 | COC(=O)c1sc(N2CC[C@@H](NC(=O)c3[nH]c(C)c(Cl)c3Cl)[C@@H](OC)C2)nc1-c1csc(N)n1 [Example 71] | 101 | –
14 | COC(=O)c1sc(N2CC[C@@H](NC(=O)c3[nH]c(C)c(Cl)c3Cl)[C@@H](F)C2)nc1-c1ncc[nH]1 [Example 87] | 71 | –
15 | COCn1ccnc1-c1nc(N2CC[C@@H](NC(=O)c3[nH]c(C)c(Cl)c3Cl)[C@@H](F)C2)sc1C(=O)OC [Example 59] | 100 | –
16 | Cc1[nH]c(C(=O)N[C@@H]2CCN(c3nc(-c4cnccn4)c(C(=O)O)s3)C[C@@H]2OCc2ccccc2)c(Cl)c1Cl [Example 145, 2-[(3S,4R)-3-(benzyloxy)-4-{[(3,4-dichloro-5-methyl-1H-pyrrol-2-yl)carbonyl]amino}piperidin-1-yl]-4-(pyrazin-2-yl)-1,3-thiazole-5-carboxylic acid] | 113 | –

Row | SMILES | inhibition at 1 µM [%] | inhibition at 5 µM (compound tested at a concentration of 5 μM) [%]
17 | COC(=O)c1sc(N2CC[C@@H](NC(=O)c3[nH]c(C)c(Cl)c3Cl)[C@@H](OC)C2)nc1-c1ccno1 [Example 60] | 104 | –
18 | COC(=O)c1sc(N2CC[C@@H](NC(=O)c3[nH]c(C)c(Cl)c3Cl)[C@@H](F)C2)nc1-c1ccno1 [Example 61] | 94.7 | –
19 | CO[C@H]1CN(c2nc(-c3nc4ccccc4s3)c(C(=O)O)s2)CC[C@H]1NC(=O)c1[nH]c(C)c(Cl)c1Cl [Example 13, 4-(1,3-Benzothiazol-2-yl)-2-((3S,4R)-4-{[(3,4-dichloro-5-methyl-1H-pyrrol-2-yl)carbonyl]amino}-3-methoxypiperidin-1-yl)-1,3-thiazole-5-carboxylic acid] | 101 | –
20 | COC(=O)c1sc(N2CC[C@@H](NC(=O)c3[nH]c(C)c(Cl)c3Cl)[C@@H](F)C2)nc1-c1ccn[nH]1 [Example 63] | 99.8 | –
21 | CCOC(=O)c1sc(N2CC[C@@H](NC(=O)c3[nH]c(C)c(Cl)c3Cl)[C@@H](OC)C2)nc1-c1ccccn1 [Example 48] | 100 | –
22 | CCOC(=O)c1sc(N2CC[C@@H](NC(=O)c3[nH]c(C)c(Cl)c3Cl)[C@@H](OC)C2)nc1-c1ncccn1 [Example 43, Ethyl 2-((3S,4R)-4-{[(3,4-dichloro-5-methyl-1H-pyrrol-2-yl)carbonyl]amino}-3-methoxypiperidin-1-yl)-4-pyrimidin-2-yl-1,3-thiazole-5-carboxylate] | 102 | –
23 | CO[C@H]1CN(c2nc(-c3cc(N(C)C)nc(N(C)C)n3)c(C(=O)O)s2)CC[C@H]1NC(=O)c1[nH]c(C)c(Cl)c1Cl [Example 9, 4-[2,6-Bis(dimethylamino)pyrimidin-4-yl]-2-((3S,4R)-4-{[(3,4-dichloro-5-methyl-1H-pyrrol-2-yl)carbonyl]amino}-3-methoxypiperidin-1-yl)-1,3-thiazole-5-carboxylic acid] | 102 | –
24 | CCOC(=O)c1sc(N2CC[C@@H](NC(=O)c3[nH]c(C)c(Cl)c3Cl)[C@@H](F)C2)nc1-c1ccncn1 [Example 46] | 102 | –
25 | CCCO[C@H]1CN(c2nc(-c3cnccn3)c(C(=O)O)s2)CC[C@H]1NC(=O)c1[nH]c(C)c(Cl)c1Cl [Example 161, 2-[(3S,4R)-4-{[(3,4-dichloro-5-methyl-1H-pyrrol-2-yl)carbonyl]amino}-3-propoxypiperidin-1-yl]-4-(pyrazin-2-yl)-1,3-thiazole-5-carboxylic acid] | – | 14
26 | CO[C@H]1CN(c2nc(-c3ncccc3F)c(C(=O)O)s2)CC[C@H]1NC(=O)c1[nH]c(C)c(Cl)c1Cl [Example 114, 2-((3S,4R)-4-(3,4-dichloro-5-methyl-1H-pyrrole-2-carboxamido)-3-methoxypiperidin-1-yl)-4-(3-fluoropyridin-2-yl)thiazole-5-carboxylic acid] | 82.9 | –
27 | CNc1nc(-c2nc(N3CC[C@@H](NC(=O)c4[nH]c(C)c(Cl)c4Cl)[C@@H](F)C3)sc2C(=O)OC)cs1 [Example 75] | 93.1 | –
28 | Cc1[nH]c(C(=O)N[C@@H]2CCN(c3nc(-c4cnccn4)c(C(=O)O)s3)C[C@@H]2OCc2ccccc2)cc1Cl [Example 150, 2-[(3S,4R)-3-(benzyloxy)-4-{[(4-chloro-5-methyl-1H-pyrrol-2-yl)carbonyl]amino}piperidin-1-yl]-4-(pyrazin-2-yl)-1,3-thiazole-5-carboxylic acid] | 102 | –
29 | COCCn1ccnc1-c1nc(N2CC[C@@H](NC(=O)c3[nH]c(C)c(Cl)c3Cl)[C@@H](OC)C2)sc1C(=O)O [Example 25, 2-((3S,4R)-4-{[(3,4-Dichloro-5-methyl-1H-pyrrol-2-yl)carbonyl]amino}-3-methoxypiperidin-1-yl)-4-[1-(2-methoxyethyl)-1H-imidazol-2-yl]-1,3-thiazole-5-carboxylic acid] | 98.3 | –
30 | CCOC(=O)c1sc(N2CC[C@@H](NC(=O)c3[nH]c(C)c(Cl)c3Cl)[C@@H](OC)C2)nc1-c1cn(C)cn1 [Example 77] | 100 | –
31 | CCOC(=O)c1sc(N2CC[C@@H](NC(=O)c3[nH]c(C)c(Cl)c3Cl)[C@@H](OC)C2)nc1-c1ncccc1F [Example 97, ethyl 2-((3S,4R)-4-(3,4-dichloro-5-methyl-1H-pyrrole-2-carboxamido)-3-methoxypiperidin-1-yl)-4-(3-fluoropyridin-2-yl)thiazole-5-carboxylate] | 91.5 | –
